Structures are written as SMILES.

In this assay the target is recombinant mTOR (Homo sapiens (Human), UniProt P42345). Briefly: mTOR kinase assay (33P incorporation into 4EBP1). Type of assay: biochemical. Particulars: compound at 10 μM, 10 μM ATP. The protocol: The activity of the compound against mTOR was examined by measuring the incorporation of ^33P from [γ-^33P]-ATP into 4EBP1. His-tagged, recombinant human 4EBP1 was expressed in E. coli, purified by nickel-nitrilotriacetic acid (Ni-NTA) resins, and stored at −80° C. Phosphorylation of 4EBP1 by mTOR was assayed in the presence or absence of the compound and performed in a final volume of 25 μl reaction buffer containing 300 ng 4EBP1, 50 ng recombinant mTOR (Invitrogen), 50 mM HEPES (pH 7.5), 1 mM EGTA, 0.01% Polysorbate 20, 10 mM MnCl2, 2.5 mM DTT, 10 μM ATP, and 0.5 μCi [γ-33P]-ATP (PerkinElmir) for 30 min at 30° C. The reactions were terminated by adding 3% phosphoric acid. The ^33P labeled 4EBP1 was transferred onto UniFilter-96 GF/B plate (PerkinElmer) and quantified by Top Count Microplate Scintillation Counter (PerkinElmer). For primary screening of kinase activity inhibition, each test compound was evaluated at […] in duplicate. […] The IC50 values of the compounds were determined after carrying out assays at eight serially diluted concentrations of each compound in duplicate. The results were analyzed using linear regression software (GraphPad Prism 5; GraphPad Software Inc.).
Chain of recombinant mTOR (P42345 1360-2549): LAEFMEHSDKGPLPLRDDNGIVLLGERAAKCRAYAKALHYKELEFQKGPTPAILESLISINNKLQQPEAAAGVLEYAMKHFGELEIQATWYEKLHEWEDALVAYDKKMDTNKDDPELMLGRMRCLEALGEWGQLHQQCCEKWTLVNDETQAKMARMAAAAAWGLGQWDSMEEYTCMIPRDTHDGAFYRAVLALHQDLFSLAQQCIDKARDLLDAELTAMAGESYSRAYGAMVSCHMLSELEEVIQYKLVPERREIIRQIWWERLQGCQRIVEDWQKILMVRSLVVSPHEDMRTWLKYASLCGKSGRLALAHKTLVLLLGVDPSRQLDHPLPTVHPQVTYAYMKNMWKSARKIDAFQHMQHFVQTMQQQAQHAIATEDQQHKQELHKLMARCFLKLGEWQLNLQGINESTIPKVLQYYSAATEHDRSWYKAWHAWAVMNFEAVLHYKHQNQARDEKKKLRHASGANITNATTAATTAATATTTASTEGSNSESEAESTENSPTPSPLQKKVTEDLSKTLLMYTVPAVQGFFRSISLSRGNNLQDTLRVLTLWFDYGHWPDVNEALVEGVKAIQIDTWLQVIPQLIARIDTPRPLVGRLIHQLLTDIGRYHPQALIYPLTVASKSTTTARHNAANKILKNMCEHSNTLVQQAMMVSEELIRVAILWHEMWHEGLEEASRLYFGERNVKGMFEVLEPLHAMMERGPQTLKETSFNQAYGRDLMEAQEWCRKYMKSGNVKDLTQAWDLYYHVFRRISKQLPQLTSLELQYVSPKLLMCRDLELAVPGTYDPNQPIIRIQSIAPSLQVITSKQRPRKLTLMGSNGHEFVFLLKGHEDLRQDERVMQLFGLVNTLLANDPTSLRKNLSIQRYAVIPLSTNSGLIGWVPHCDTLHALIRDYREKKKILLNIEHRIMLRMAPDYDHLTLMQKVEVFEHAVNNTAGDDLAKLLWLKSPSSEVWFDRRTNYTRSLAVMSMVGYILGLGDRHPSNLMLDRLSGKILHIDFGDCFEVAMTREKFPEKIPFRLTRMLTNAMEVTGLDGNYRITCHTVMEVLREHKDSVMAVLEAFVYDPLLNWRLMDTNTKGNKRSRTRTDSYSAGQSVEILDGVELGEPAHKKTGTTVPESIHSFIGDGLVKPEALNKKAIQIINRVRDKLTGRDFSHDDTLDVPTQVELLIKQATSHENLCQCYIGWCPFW
IC50 value is defined as the concentration of the test compound which achieves a half-maximal inhibition of the kinase activity.
Turning to `CCOC(=O)c1ccc(NC(=O)Nc2ccc(-c3nc(C(=O)OCC)c(OCC)c(N4CCOCC4)n3)cc2)cc1` [MTR-0362, 5-Ethoxy-2-{4-[3-(4-ethoxycarbonyl-phenyl)-ureido]-phenyl}-6-morpholin-4-yl-pyrimidine-4-carboxylic acid ethyl ester], the inhibition at 10 µM is 84%.
The result for `CCOC(=O)c1nc(-c2ccc(NC(N)=O)cc2)nc(N2CCOCC2)c1OCC` [MTR-0121, 5-Ethoxy-6-morpholin-4-yl-2-(4-ureido-phenyl)-pyrimidine-4-carboxylic acid ethyl ester] reads 94%.
The result for `CCOC(=O)c1nc(-c2cccc(O)c2)nc(N2CCOCC2)c1OCC` [MTR-0037, 5-Ethoxy-2-(3-hydroxy-phenyl)-6-morpholin-4-yl-pyrimidine-4-carboxylic acid ethyl ester] reads 98%; that for `CCOc1c(-c2cccnc2)nc(-c2ccc(NC(=O)Nc3ccncc3)cc2)nc1N1CCOCC1` [MTR-0490, 1-[4-(5-Ethoxy-4-morpholin-4-yl-6-pyridin-3-yl-pyrimidin-2-yl)-phenyl]-3-pyridin-4-yl-urea], 102%.
The result for `CCOC(=O)c1nc(-c2ccc(NC(=O)Nc3ccc(C(N)=O)cc3)cc2F)nc(N2CCOCC2)c1OCC` [MTR-0345, 2-{4-[3-(4-Carbamoyl-phenyl)-ureido]-2-fluoro-phenyl}-5-ethoxy-6-morpholin-4-yl-pyrimidine-4-carboxylic acid ethyl ester] reads 95%; that for `CCOc1c(C(=O)O)nc(-c2ccc(NC(=O)Nc3ccccc3)cc2)nc1N1CCOCC1` [MTR-0118, 5-Ethoxy-6-morpholin-4-yl-2-[4-(3-phenyl-ureido)-phenyl]-pyrimidine-4-carboxylic acid], 94%; that for `CSc1cnc(-c2ccc(NC(=O)Nc3ccc(N4CCN(S(C)(=O)=O)CC4)cc3)cc2)nc1N1CCOCC1` [MTR-0430, 1-[4-(4-Methanesulfonyl-piperazin-1-yl)-phenyl]-3-[4-(5-methylsulfanyl-4-morpholin-4-yl-pyrimidin-2-yl)-phenyl]-urea], 86%.
For the compound `CSc1c(Cl)nc(-c2ccc(NC(N)=O)c(F)c2)nc1N1CCOCC1` [MTR-0356, [4-(4-Chloro-5-methylsulfanyl-6-morpholin-4-yl-pyrimidin-2-yl)-2-fluoro-phenyl]-urea], the inhibition at 10 µM turned out to be 82%.
On to `CSc1c(Cl)nc(-c2ccc(NC(=O)NC(C)C)cc2)nc1N1CCOCC1` [MTR-0306, 1-[4-(4-Chloro-5-methylsulfanyl-6-morpholin-4-yl-pyrimidin-2-yl)-phenyl]-3-isopropyl-urea], for which the inhibition at 10 µM came to 90%.
The result for `CSc1c(Cl)nc(-c2cnc(N)nc2)nc1N1CCOCC1` [MTR-0373, 6-Chloro-5-methylsulfanyl-4-morpholin-4-yl-[2,5′]bipyrimidinyl-2′-ylamine] reads 81%; that for `CCOC(=O)c1nc(-c2ccc(NC(=O)Nc3cccc4[nH]ncc34)cc2)nc(N2CCOCC2)c1OCC` [MTR-0297, 5-Ethoxy-2-{4-[3-(1H-indazol-4-yl)-ureido]-phenyl}-6-morpholin-4-yl-pyrimidine-4-carboxylic acid ethyl ester], 83%.
The result for `COc1c(C(=O)O)nc(-c2ccc(NC(=O)Nc3ccccc3)cc2)nc1N1CCOCC1` [MTR-0183, 5-Methoxy-6-morpholin-4-yl-2-[4-(3-phenyl-ureido)-phenyl]-pyrimidine-4-carboxylic acid] reads 95%.
`CSc1c(Cl)nc(-c2ccc(NC(=O)Nc3ccc(Cl)nc3)cc2)nc1N1CCOCC1` [MTR-0077, 1-[4-(4-Chloro-5-methylsulfanyl-6-morpholin-4-yl-pyrimidin-2-yl)-phenyl]-3-(6-chloro-pyridin-3-yl)-urea]: the inhibition at 10 µM is 87%.
The result for `CNC(=O)Nc1ccc(-c2ncc(SC)c(N3CCOCC3)n2)cc1` [MTR-0210, 1-Methyl-3-[4-(5-methylsulfanyl-4-morpholin-4-yl-pyrimidin-2-yl)-phenyl]-urea] reads 96%; that for `CCOC(=O)c1nc(-c2ccc3[nH]ccc3c2)nc(N2CCOCC2)c1OCC` [MTR-0054, 5-Ethoxy-2-(1H-indol-5-yl)-6-morpholin-4-yl-pyrimidine-4-carboxylic acid ethyl ester], 81%.
The result for `CCOc1c(CN2CCCCC2)nc(-c2ccc(NC(=O)Nc3ccccc3)cc2)nc1N1CCOCC1` [MTR-0193, 1-[4-(5-Ethoxy-4-morpholin-4-yl-6-piperidin-1-ylmethyl-pyrimidin-2-yl)-phenyl]-3-phenyl-urea] reads 81%.
Turning to `CCOc1c(C(=O)NCCN2CCOCC2)nc(-c2ccc(NC(=O)Nc3ccccc3)cc2)nc1N1CCOCC1` [MTR-0139, 5-Ethoxy-6-morpholin-4-yl-2-[4-(3-phenyl-ureido)-phenyl]-pyrimidine-4-carboxylic acid (2-morpholin-4-yl-ethyl)-amide], the inhibition at 10 µM was 85%.
The result for `CSc1c(Cl)nc(-c2ccc(NC(=O)Nc3ccc(N)cc3)cc2)nc1N1CCOCC1` [MTR-0329, 1-(4-Amino-phenyl)-3-[4-(4-chloro-5-methylsulfanyl-6-morpholin-4-yl-pyrimidin-2-yl)-phenyl]-urea] reads 97%.
Take `CSc1cnc(-c2ccc(NC(N)=O)cc2)nc1N1CCOCC1` [MTR-0286, [4-(5-Methylsulfanyl-4-morpholin-4-yl-pyrimidin-2-yl)-phenyl]-urea]: the inhibition at 10 µM is 93%.
On to `CCOc1c(-c2ccncc2)nc(-c2ccc(NC(=O)Nc3cccnc3)cc2)nc1N1CCOCC1` [MTR-0493, 1-[4-(5-Ethoxy-4-morpholin-4-yl-6-pyridin-4-yl-pyrimidin-2-yl)-phenyl]-3-pyridin-3-yl-urea], for which the inhibition at 10 µM is 99%.
The result for `CCOC(=O)c1nc(-c2ccc(NC(=O)Nc3ccc(F)c(F)c3)cc2)nc(N2CCOCC2)c1OCC` [MTR-0150, 2-{4-[3-(3,4-Difluoro-phenyl)-ureido]-phenyl}-5-ethoxy-6-morpholin-4-yl-pyrimidine-4-carboxylic acid ethyl ester] reads 87%.
The result for `CSc1c(-c2ccncc2)nc(-c2ccc(NC(=S)Nc3ccccc3)cc2)nc1N1CCOCC1` [MTR-0468, 1-[4-(5-Methylsulfanyl-4-morpholin-4-yl-6-pyridin-4-yl-pyrimidin-2-yl)-phenyl]-3-phenyl-thiourea] reads 97%; that for `COc1cnc(-c2ccc(Nc3nc4ccccc4[nH]3)cc2)nc1N1CCOCC1` [MTR-0310, (1H-Benzoimidazol-2-yl)-[4-(5-methoxy-4-morpholin-4-yl-pyrimidin-2-yl)-phenyl]-amine], 86%.
As for `CSc1cnc(-c2ccc(NC(=S)Nc3ccc(N4CCOCC4=O)cc3)cc2)nc1N1CCOCC1` [MTR-0319, 1-[4-(5-Methylsulfanyl-4-morpholin-4-yl-pyrimidin-2-yl)-phenyl]-3-[4-(3-oxo-morpholin-4-yl)-phenyl]-thiourea], the inhibition at 10 µM worked out at 84%.
The result for `CCOC(=O)c1nc(-c2ccc(NC(=O)Nc3ccc(N4CCN(C)CC4)nc3)cc2)nc(N2CCOCC2)c1OCC` [MTR-0275, 5-Ethoxy-2-(4-{3-[6-(4-methyl-piperazin-1-yl)-pyridin-3-yl]-ureido}-phenyl)-6-morpholin-4-yl-pyrimidine-4-carboxylic acid ethyl ester] reads 97%.
The result for `CSc1c(Cl)nc(-c2ccc(Nc3nc4ccccc4[nH]3)cc2)nc1N1CCOCC1` [MTR-0305, (1H-Benzoimidazol-2-yl)-[4-(4-chloro-5-methylsulfanyl-6-morpholin-4-yl-pyrimidin-2-yl)-phenyl]-amine] reads 82%.
The result for `CCOc1c(C(N)=O)nc(-c2ccc(NC(=O)Nc3ccccc3)cc2)nc1N1CCOCC1` [MTR-0125, 5-Ethoxy-6-morpholin-4-yl-2-[4-(3-phenyl-ureido)-phenyl]-pyrimidine-4-carboxylic acid amide] reads 96%; that for `CCOC(=O)c1nc(-c2ccc(NC(=O)Nc3ccc(F)cc3)cc2)nc(N2CCOCC2)c1OCC` [MTR-0149, 5-Ethoxy-2-{4-[3-(4-fluoro-phenyl)-ureido]-phenyl}-6-morpholin-4-yl-pyrimidine-4-carboxylic acid ethyl ester], 93%; that for `CCOc1cnc(-c2ccc(NC(=O)Nc3ccc(N4CCSCC4)cc3)cc2)nc1N1CCOCC1` [MTR-0324, 1-[4-(5-Ethoxy-4-morpholin-4-yl-pyrimidin-2-yl)-phenyl]-3-(4-thiomorpholin-4-yl-phenyl)-urea], 81%.
For the compound `CSc1c(Cl)nc(-c2ccc(NC(=O)Nc3ccc4c(c3)OCO4)cc2)nc1N1CCOCC1` [MTR-0256, 1-Benzo[1,3]dioxol-5-yl-3-[4-(4-chloro-5-methylsulfanyl-6-morpholin-4-yl-pyrimidin-2-yl)-phenyl]-urea], the inhibition at 10 µM was found to be 90%.
The result for `CSc1c(Cl)nc(-c2ccc(NC(=O)NCCCl)cc2)nc1N1CCOCC1` [MTR-0108, 1-(2-Chloro-ethyl)-3-[4-(4-chloro-5-methylsulfanyl-6-morpholin-4-yl-pyrimidin-2-yl)-phenyl]-urea] reads 89%.
Consider `CSc1c(-c2ccncc2)nc(-c2ccc(N)cc2)nc1N1CCOCC1` [MTR-0360, 4-(5-Methylsulfanyl-4-morpholin-4-yl-6-pyridin-4-yl-pyrimidin-2-yl)-phenylamine], for which the inhibition at 10 µM is 95%.

The record behind these values is US9315491B2 (DEVELOPMENT CENTER FOR BIOTECHNOLOGY, priority 2009, dated 2016).
